Values quoted from earlier work, collected in patent US20250369985A1, “METHOD FOR DETERMINING THE THERAPEUTIC REGIMEN FOR AN INDIVIDUAL AND ITS USE” (MOSAIQUES DIAGNOSTICS AND THERAPEUTICS AG, priority 2022, published 2025).
Where two headings read alike, the source gives them in different places.

System: urinary proteins/peptides (71 biomarkers of CD71 classifier)
[1] = peptide 99900220 (Seq. ID No. 1)
[2] = peptide 99900467 (Seq. ID No. 2)
[3] = peptide 99901399 (Seq. ID No. 3)
[4] = peptide 99902592 (Seq. ID No. 4)
[5] = peptide 99903025 (Seq. ID No. 5)
[6] = peptide 99904405 (Seq. ID No. 6)
[7] = peptide 99904666 (Seq. ID No. 7)
[8] = peptide 99904862 (Seq. ID No. 8)
[9] = peptide 99905044 (Seq. ID No. 9)
[10] = peptide 99905259 (Seq. ID No. 10)
[11] = peptide 99905274 (Seq. ID No. 11)
[12] = peptide 99905379 (Seq. ID No. 12)
[13] = peptide 99905423 (Seq. ID No. 13)
[14] = peptide 99905509 (Seq. ID No. 14)
[15] = peptide 99905551 (Seq. ID No. 15)
[16] = peptide 99906176 (Seq. ID No. 16)
[17] = peptide 99907275 (Seq. ID No. 17)
[18] = peptide 99907807 (Seq. ID No. 18)
[19] = peptide 99908755 (Seq. ID No. 19)
[20] = peptide 99908795 (Seq. ID No. 20)
[21] = peptide 99908916 (Seq. ID No. 21)
[22] = peptide 99909059 (Seq. ID No. 22)
[23] = peptide 99910002 (Seq. ID No. 23)
[24] = peptide 99910032 (Seq. ID No. 24)
[25] = peptide 99910407 (Seq. ID No. 25)
[26] = peptide 99910483 (Seq. ID No. 26)
[27] = peptide 99910554 (Seq. ID No. 27)
[28] = peptide 99910883 (Seq. ID No. 28)
[29] = peptide 99911002 (Seq. ID No. 29)
[30] = peptide 99911193 (Seq. ID No. 30)
[31] = peptide 99911415 (Seq. ID No. 31)
[32] = peptide 99911559 (Seq. ID No. 32)
[33] = peptide 99911777 (Seq. ID No. 33)
[34] = peptide 99912101 (Seq. ID No. 34)
[35] = peptide 99912211 (Seq. ID No. 35)
[36] = peptide 99912366 (Seq. ID No. 36)
[37] = peptide 99912411 (Seq. ID No. 37)
[38] = peptide 99912661 (Seq. ID No. 38)
[39] = peptide 99913200 (Seq. ID No. 39)
[40] = peptide 99913322 (Seq. ID No. 40)
[41] = peptide 99913825 (Seq. ID No. 41)
[42] = peptide 99914211 (Seq. ID No. 42)
[43] = peptide 99914445 (Seq. ID No. 43)
[44] = peptide 99914876 (Seq. ID No. 44)
[45] = peptide 99914887 (Seq. ID No. 45)
[46] = peptide 99914893 (Seq. ID No. 46)
[47] = peptide 99914935 (Seq. ID No. 47)
[48] = peptide 99915015 (Seq. ID No. 48)
[49] = peptide 99915755 (Seq. ID No. 49)
[50] = peptide 99915778 (Seq. ID No. 50)
[51] = peptide 99915883 (Seq. ID No. 51)
[52] = peptide 99916170 (Seq. ID No. 52)
[53] = peptide 99916177 (Seq. ID No. 53)
[54] = peptide 99916611 (Seq. ID No. 54)
[55] = peptide 99916615 (Seq. ID No. 55)
[56] = peptide 99916966 (Seq. ID No. 56)
[57] = peptide 99917047 (Seq. ID No. 57)
[58] = peptide 99917221 (Seq. ID No. 58)
[59] = peptide 99917280 (Seq. ID No. 59)
[60] = peptide 99917288 (Seq. ID No. 60)
[61] = peptide 99917419 (Seq. ID No. 61)
[62] = peptide 99917505 (Seq. ID No. 62)
[63] = peptide 99917596 (Seq. ID No. 63)
[64] = peptide 99917626 (Seq. ID No. 64)
[65] = peptide 99917690 (Seq. ID No. 65)
[66] = peptide 99917825 (Seq. ID No. 66)
[67] = peptide 99917890 (Seq. ID No. 67)
[68] = peptide 99917947 (Seq. ID No. 68)
[69] = peptide 99918831 (Seq. ID No. 69)
[70] = peptide 99918906 (Seq. ID No. 70)
[71] = peptide 99918909 (Seq. ID No. 71)

Measured: f (fold-change of the abundance)

Cc1ccc([C@@H]2O[C@H](CO)[C@@H](O)[C@H](O)[C@H]2O)cc1Cc1ccc(-c2ccc(F)cc2)s1 [drug C]
1.33: [32]
0.83: [55]
1.55: [47]
1: [1] | [2] | [3] | [4] | [5] | [7] | [8] | [9] | [10] | [12] | [13] | [14] | [15] | [16] | [17] | [19] | [20] | [21] | [22] | [23] | [24] | [25] | [26] | [27] | [29] | [30] | [31] | [33] | [34] | [35] | [36] | [37] | [38] | [39] | [41] | [42] | [44] | [45] | [46] | [48] | [49] | [50] | [51] | [52] | [53] | [56] | [57] | [58] | [59] | [60] | [61] | [62] | [63] | [64] | [67] | [68] | [69] | [70] | [71]
2.01: [66]
1.22: [6]
1.71: [28]
1.84: [18]
0.63: [65]
1.86: [11] | [40]
0.79: [54]
0.64: [43]

CCOc1nc2cccc(C(=O)O)c2n1Cc1ccc(-c2ccccc2-c2nnn[nH]2)cc1 [drug A]
1.15: [13]
1.47: [16]
1.49: [20]
0.74: [58]
1: [1] | [2] | [3] | [4] | [5] | [6] | [7] | [9] | [11] | [12] | [14] | [15] | [17] | [18] | [19] | [21] | [23] | [24] | [25] | [26] | [27] | [29] | [31] | [32] | [33] | [34] | [36] | [37] | [38] | [39] | [40] | [42] | [43] | [44] | [45] | [47] | [50] | [51] | [53] | [54] | [55] | [56] | [59] | [60] | [61] | [62] | [63] | [64] | [65] | [66] | [67] | [68] | [69] | [70] | [71]
0.68: [41]
0.81: [28]
0.64: [57]
1.83: [48]
1.26: [30]
0.67: [46] | [49]
1.78: [35]
1.27: [52]
1.5: [10]
1.4: [8]
0.65: [22]
